Assay results: patent publication US8344181B2, “N-2 adamantanyl-2-phenoxy-acetamide derivatives as 11-beta hydroxysteroid dehydrogenase inhibitors” (Janssen Pharmaceutica N.V., priority 2004, dated 2013)

Key:
11β-HSD2 = molecular target: T1, 11β-HSD2 (Homo sapiens, UniProt P80365); assay: Cellular assay of 11β-HSD2 activity in HepG2 cells; assay type: cell-based; conditions: 4 hour pre-incubation, 10^-5M to 10^-10M, read-out: HSD2 cellular HepG2 Score
T1 construct: endogenous in cells; host or cells: HepG2 (ATCC HB-8065)
T1 sequence (P80365 1-405): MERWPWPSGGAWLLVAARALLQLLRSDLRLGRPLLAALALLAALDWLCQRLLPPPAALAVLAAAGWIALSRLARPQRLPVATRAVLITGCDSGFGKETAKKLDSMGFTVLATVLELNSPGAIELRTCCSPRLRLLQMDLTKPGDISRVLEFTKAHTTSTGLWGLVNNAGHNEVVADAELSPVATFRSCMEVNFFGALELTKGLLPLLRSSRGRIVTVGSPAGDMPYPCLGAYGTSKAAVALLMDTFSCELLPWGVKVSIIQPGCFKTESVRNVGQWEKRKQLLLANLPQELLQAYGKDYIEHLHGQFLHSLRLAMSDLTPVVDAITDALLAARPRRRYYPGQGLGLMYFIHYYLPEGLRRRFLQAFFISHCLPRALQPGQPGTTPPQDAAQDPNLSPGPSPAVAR
Method: The effects on 11β-HSD2 activity was studied in HepG2 and LCC-PK1-cells HepG2-cells (ATCC HB-8065) were seeded in 12 well plates at a density of 100,000 cells/ml and grown at 37° C. in a humidified 5% CO2 atmosphere in MEM-Rega-3 medium supplemented with 10% heat inactivated foetal calf serum, 2 mM L-glutamine and sodium bicarbonate). Medium was refreshed twice a week.
Following a 4 hour pre-incubation with test compound, 0.5 μCi ^3H-cortisol or corticosterone, was added to the cultures. One hour later, the medium was extracted on Extrelut^3-columns with 15 ml diethyl ether and the extract was analysed by HPLC as described above.
(§1) As for the enzymatic assays, the compounds to be tested were taken from a stock solution and tested at a final concentration ranging from 10^−5M to 10^−10M. From the thus obtained dose response curves, the pIC50 value was calculated and scored as follows; Score 1=pIC50 value<5, Score 2=pIC50 value in the range of 5 to 6, Score 3=pIC50 value>6. (in this table NT stands for Not Tested).

11β-HSD1 = molecular target: T2, 11β-HSD1 (Mus musculus, UniProt P50172); assay: Cellular assay of 11β-HSD1 activity in differentiated 3T3-L1 cells; assay type: cell-based; conditions: 4 hour pre-incubation, 10^-5M to 10^-10M, read-out: HSD1 cellular 3T3-L1 Score
T2 construct: endogenous in cells; host or cells: 3T3-L1 (ATCC-CL-173), differentiated into adipocytes
Method: The effects on 11β-HSD1 activity was measured in differentiated 3T3-L1 cells and rat hepatocytes.
Mouse fibroblast 3T3-L1 cells (ATCC-CL-173) were seeded at a density of 16500 cells/ml in 12 well plates and grown for 7 days in DMEM medium (supplemented with 10% heat inactivated foetal calf serum, 2 mM glutamine and 25 mg gentamycin) at 37° C. in a humidified 5% CO2 atmosphere. Medium was refreshed twice a week. Fibroblasts were differentiated into adipocytes at 37° C. in a 5% CO2 humidified atmosphere in growth medium containing 2 μg/ml insulin, 55 μg/ml IBMX and 39.2 μg/ml dexamethasone.
Primary hepatocytes from male rats were seeded on normal Falcon 12 well plates at a density of 250000 cells/well and incubated for 16 hours at 37° C. in a 5% CO2 humidified atmosphere in DMEM-HAM's F12 medium containing 5% Nu-serum, 100 U/ml penicillin, 100 μg/ml streptomycin, 0.25 μg/ml amphotericin B, 50 μg/ml gentamycin sulfate, 5 μg/ml insulin and 392 ng/ml dexamethasone. Following a 4 hour pre-incubation with test compound, 0.5 μCi ^3H-cortisone or dehydrocorticosterone, was added to the 3T3-L1 cultures. One hour later, the medium was extracted on Extrelut^3-columns with 15 ml diethyl ether and the extract was analysed by HPLC as described above. The effects of JNJ-compounds on rat hepatocyte HSD1 activity was measured after an incubation period of 90 minutes with 0.5 μCi^3H-dehydrocorticosterone. Corticosterone formation was analysed by HPLC.
as §1

T2 sequence (P50172 whole entry): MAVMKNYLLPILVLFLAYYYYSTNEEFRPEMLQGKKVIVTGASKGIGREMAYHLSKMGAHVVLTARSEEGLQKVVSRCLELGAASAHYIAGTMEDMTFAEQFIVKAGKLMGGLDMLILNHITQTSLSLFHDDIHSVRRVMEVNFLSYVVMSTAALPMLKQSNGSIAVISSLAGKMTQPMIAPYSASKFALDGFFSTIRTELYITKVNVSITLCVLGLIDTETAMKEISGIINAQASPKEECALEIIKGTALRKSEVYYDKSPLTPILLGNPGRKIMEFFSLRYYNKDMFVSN

IC50 (11β-HSD2) [µM] | IC50 (11β-HSD1) [µM] | Compound
1 to 10 | < 1 | CC(C)(Nc1cccc(C(F)(F)F)c1)C(=O)N[C@H]1[C@@H]2CC3C[C@H]1C[C@](NC(=O)CCl)(C3)C2 [Compound 80]
> 10 | < 1 | CC(C)(Oc1cccc(C(F)(F)F)c1)C(=O)N[C@H]1[C@@H]2CC3C[C@H]1C[C@](N)(C3)C2 [Compound 81]
> 10 | < 1 | CC(C)(Oc1cccc(Br)c1)C(=O)N[C@H]1[C@@H]2CC3C[C@H]1C[C@](N)(C3)C2 [Compound 93]
1 to 10 | < 1 | CN(C)CCCO[C@@]12CC3C[C@H](C1)[C@H](NC(=O)C(C)(C)Oc1cccc(Cl)c1)[C@@H](C3)C2 [Compound 44]
> 10 | < 1 | Cc1ccc(S(=O)(=O)N[C@@]23CC4C[C@H](C2)[C@H](NC(=O)C(C)(C)Oc2ccc(Cl)cc2C)[C@@H](C4)C3)cc1 [Compound 77]
1 to 10 | < 1 | Cc1cc(Cl)ccc1OC(C)(C)C(=O)N[C@H]1[C@@H]2CC3C[C@H]1C[C@](NS(=O)(=O)N(C)C)(C3)C2 [Compound 30]
1 to 10 | < 1 | COC(=O)CC(=O)N[C@@]12CC3C[C@H](C1)[C@H](NC(=O)C(C)(C)Oc1ccc(Cl)cc1C)[C@@H](C3)C2 [Compound 38]
> 10 | < 1 | CC(=O)N[C@@]12CC3C[C@H](C1)[C@H](NC(=O)C(C)(C)Nc1cccc(C(F)(F)F)c1)[C@@H](C3)C2 [Compound 65]
1 to 10 | < 1 | O=C(N[C@H]1[C@@H]2CC3C[C@H]1C[C@](O)(C3)C2)C1Cc2ccccc2O1 (stereo partly drawn) [Compound 24]
